Laboratory results as given in publication PMC2709563 (Nucleic Acids Research, 2009).

Target: Klenow fragment of DNA polymerase I (Escherichia coli, UniProt P00582)
Assay: competitive fluorescence anisotropy displacement of dtC^OTP
Type: binding

Klenow fragment of DNA polymerase I, sequence (P00582 324-928 limits assumed): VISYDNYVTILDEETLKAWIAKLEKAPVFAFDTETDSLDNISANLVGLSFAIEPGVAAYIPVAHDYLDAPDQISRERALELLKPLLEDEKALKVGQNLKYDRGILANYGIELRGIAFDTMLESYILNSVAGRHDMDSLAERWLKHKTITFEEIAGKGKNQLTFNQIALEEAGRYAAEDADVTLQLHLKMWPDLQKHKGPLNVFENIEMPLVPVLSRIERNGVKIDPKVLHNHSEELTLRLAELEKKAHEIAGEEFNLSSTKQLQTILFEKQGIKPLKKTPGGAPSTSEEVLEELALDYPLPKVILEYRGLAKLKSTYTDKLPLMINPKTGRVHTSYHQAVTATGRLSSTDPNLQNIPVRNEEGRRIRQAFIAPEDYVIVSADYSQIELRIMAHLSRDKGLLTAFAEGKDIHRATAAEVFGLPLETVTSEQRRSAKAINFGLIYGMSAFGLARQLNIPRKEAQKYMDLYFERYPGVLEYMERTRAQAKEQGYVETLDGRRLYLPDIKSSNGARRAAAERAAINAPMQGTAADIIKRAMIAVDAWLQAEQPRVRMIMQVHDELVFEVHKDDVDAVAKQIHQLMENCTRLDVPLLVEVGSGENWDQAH

In the case of `Nc1ccn([C@H]2C[C@H](O)[C@@H](COP(=O)(O)OP(=O)(O)OP(=O)(O)O)O2)c(=O)n1` [dCTP], the IC50 is reported as 3.4 µM.
